Source: PubChem BioAssay AID687032 (Broad Institute, 2013)
Inconclusive results are not listed.

Tested on: IOSE-T80 viability, CellTiterGlo ATP luminescence, 96 h
Test: IOSE-T80 viability loss, PAX8-independent line – cell-based, cherry-pick, selectivity assay for PAX8 inhibitor project, dose response (AID 687032)

| Structure (SMILES) | AC50 |
| --- | --- |
| Cc1cc(Nc2ccc3c(c2)OCCO3)c2ccccc2n1 | < 260 nM |
| C[C@@H]1CCCCO[C@@H](CN(C)S(=O)(=O)c2ccc(Cl)cc2)[C@H](C)CN([C@H](C)CO)C(=O)c2cc(NS(=O)(=O)c3ccc(F)cc3)ccc2O1 | < 260 nM |
| COc1ccc(S(=O)(=O)Nc2ccc3c(c2)C(=O)N([C@H](C)CO)C[C@H](C)[C@H](CN(C)Cc2ccc(C(F)(F)F)cc2)OCCCC[C@H](C)O3)cc1 | 3450 nM |
| C[C@@H]1CCCCO[C@H](CN(C)C(=O)Cc2ccccc2)[C@@H](C)CN([C@@H](C)CO)C(=O)c2cc(NC(=O)Nc3ccc(C(F)(F)F)cc3)ccc2O1 | < 260 nM |
| O=C(Nc1ccccc1)NN(C(=O)CCl)c1ccccc1 | 8600 nM |
| O=C1CN(C(=O)Cn2ncc(Cl)c(Cl)c2=O)c2ccccc2N1 | < 260 nM |
| CCC(C)(O)C(=O)OC1C(=O)OC2CC3C(C)=CC(=O)C(O)C3(C)C3C4(O)OCC23C1C(C)C4O (centres undefined) | 8840 nM |
| C[C@@H]1CCCCO[C@@H](CN(C)Cc2ccc(C(F)(F)F)cc2)[C@@H](C)CN([C@@H](C)CO)C(=O)c2cc(NS(=O)(=O)c3ccc(F)cc3)ccc2O1 | < 235 nM |
| Cc1ccc(Cl)cc1N1CCN(C(=O)c2noc(C)c2[N+](=O)[O-])CC1 | < 260 nM |
| C[C@@H]1CN([C@H](C)CO)C(=O)Cc2cc(NC(=O)Nc3ccc(F)cc3)ccc2O[C@H]1CN(C)Cc1ccc(Cl)c(Cl)c1 | < 260 nM |
| COc1cccc(N2CCN(C(=O)c3ccc(CS(=O)c4ccccc4Cl)o3)CC2)c1 (centres undefined) | < 260 nM |
| COc1cccc(-c2ccc([C@H]3[C@@H](CO)N(C(=O)Cc4ccccc4)[C@H]3C#N)cc2)c1 | < 260 nM |
| C=C(C)c1nc(Oc2ccccc2)nc(Oc2ccccc2)n1 | < 260 nM |
| C[C@@H]1CN([C@@H](C)CO)C(=O)Cc2cc(NS(=O)(=O)c3ccc(Cl)cc3)ccc2O[C@H]1CN(C)Cc1ccc(Oc2ccccc2)cc1 | < 260 nM |
| COc1ccc(-c2nc3c(c(SCC(=O)Nc4cccc(O)c4)n2)Cc2c(CO)cnc(C)c2O3)cc1 | 8550 nM |
| Cc1ccc(S(=O)(=O)Nc2ccc3c(c2)C(=O)N([C@H](C)CO)C[C@@H](C)[C@H](CN(C)Cc2ccc(C(F)(F)F)cc2)OCCCC[C@@H](C)O3)cc1 | < 260 nM |
| C[C@@H]1CCCCO[C@H](CN(C)Cc2ccc(C(F)(F)F)cc2)[C@H](C)CN([C@@H](C)CO)C(=O)c2cc(NS(=O)(=O)c3cccs3)ccc2O1 | 33500 nM |
| CCCC(=O)NC(c1ccc(C(C)C)cc1)c1ccc2cccnc2c1O (centres undefined) | < 260 nM |
| C[C@@H]1CN([C@@H](C)CO)C(=O)Cc2cc(NC(=O)NC3CCCCC3)ccc2O[C@@H]1CN(C)Cc1ccc(-c2ccccc2)cc1 | 27800 nM |
| C[C@H](CO)N1C[C@H](C)[C@@H](CN(C)S(=O)(=O)c2ccc(Cl)cc2)OCCCC[C@H](C)Oc2ccc(NS(=O)(=O)c3ccc(Cl)cc3)cc2C1=O | < 260 nM |
| COc1ccc(-n2nc3c(N4CCC(C(=O)NCc5cccc(C)c5)CC4)nnc(C)c3c2C)cc1 | < 260 nM |
| Cc1ccc(S(=O)(=O)N(C)C[C@@H]2Oc3cc(C#Cc4ccncc4)ccc3S(=O)(=O)N([C@H](C)CO)C[C@H]2C)cc1 | 3050 nM |
| Cc1cnc(NC(=O)CSc2nnc(C)n2N)s1 | < 260 nM |
| Cc1ccc(S(=O)(=O)Nc2ccc3c(c2)CC(=O)N([C@H](C)CO)C[C@H](C)[C@H](CN(C)S(=O)(=O)c2ccc(F)cc2)O3)cc1 | < 260 nM |
| CCC(c1nnnn1Cc1ccccc1)N1CCC(n2c(=O)[nH]c3ccccc32)CC1 (centres undefined) | < 260 nM |
| C[C@H](CO)N1C[C@H](C)[C@H](CN(C)S(=O)(=O)c2ccc(Cl)cc2)OCCCC[C@H](C)Oc2ccc(NS(=O)(=O)c3ccc(F)cc3)cc2C1=O | < 260 nM |
| O=C(NCc1ccco1)C1CCCN(S(=O)(=O)c2ccc(Br)cc2)C1 (centres undefined) | < 260 nM |
| O=C(NC12CC3CC(CC(C3)C1)C2)c1ccc([N+](=O)[O-])o1 | < 260 nM |
| FC(F)(F)c1nnc2c(Sc3ccccn3)nc3ccccc3n12 | 8850 nM |
